What was measured:
Acute toxicity, rat = conditions: in vivo, read-out: acute dosages
Source text: (§1) The results of toxicity tests on coenzyme Q10 used in this invention are shown below.

Solubility = type: physicochemical
Acute toxicity, mouse = conditions: in vivo, read-out: acute dosages
Source text: as §1

[1] = tested on: penicillin cortical focus; test: Prevention of EEG spike discharge in penicillin cortical focus model (Co Q10 given before penicillin G); type: in vivo, Male Sprague-Dawley rats; conditions: Table 1, Experimental Example 4; 100 mg/kg Co Q10 first, PCG applied 64 minutes thereafter
Source text: (§2) Male Sprague-Dawley rats each having a body weight in the range of 250 to 350 g were used for the experiment.
(§3) Each test rat, anesthetized with ether and immobilized with succinylcholine was subjected to tracheal intubation and fixed to a stereotaxic instrument under artificial respiration. A hole about 3 mm in diameter was made at a part of the skull corresponding to the left-side sensory-motor cortex and the dura mater was cut out to expose the cerebral cortex surface. The skull was immersed in a physiological saline solution. A 2 mm square filter paper impregnated with […] of penicillin (penicillin G) was then applied directly to the cerebral surface to form a penicillin cortical focus. This focus is a typical epilepsy model.
Each rat skull was bared and screw electrodes, four in all, were fixedly planted at the following four locations: two sites 2 mm to the left and right, respectively, from a position 2 mm forward of the bregma, and two sites 3 mm to the left and right, respectively, from a position 6 mm rearward of the bregma. Unipolar and bipolar electroencephalograms (EEG) were recorded by the electrodes. Electrocardiogram readings were simultaneously taken. […]

Wistar rats = test: Chronic toxicity, 26 weeks per os; type: in vivo, male and female Wistar rats; conditions: 6, 60 and 600 mg/kg/day per os, 26 successive weeks
Protocol: Coenzyme Q10 was forcibly administered per os to both male and female Wistar rats at doses of 6, 60 and 600 mg/kg/day for a period of 26 successive weeks. After this testing period, an examination of the general condition, a blood test, a urine test and a morphological observation (macroscopic and histologic) were conducted.

[2] = tested on: penicillin cortical focus; test: EEG spike discharge in penicillin cortical focus epilepsy model (Co Q10 given after penicillin G); type: in vivo, Male Sprague-Dawley rats
Source text: as §2, §3
Each rat skull was bared and screw electrodes, four in all, were fixedly planted at the following four locations: two sites 2 mm to the left and right, respectively, from a position 2 mm forward of the bregma, and two sites 3 mm to the left and right, respectively, from a position 6 mm rearward of the bregma. Unipolar and bipolar electroencephalograms (EEG) were recorded by the electrodes. Electrocardiogram readings were simultaneously taken. EEG lead measurements were conducted of (1) four bipolar leads comprising a lead from the left sincipital region to the left occipital region, a lead from the right sincipital region to the right occipital region, a lead from the left to the right sincipital region, and a lead from the left to the right occipital region, and (2) four unipolar leads comprising leads from each of the left sincipital region, left occipital region, right sincipital region and right occipital region.
The corticogram shown in FIG. 6 illustrates the procedure employed. The recordings were carried out from 4 epidural electrodes. LF-LO: bipolar recording from left frontal electrode (LF) to left occipital electrode (LO), RF-RO: bipolar recording from right frontal electrode (RF) to right occipital electrode (RO), LF-RF: bipolar recording from LF to RF, LO-RO: bipolar recording from LO to RO, LF-E: unipolar recording from LF, LO-E: unipolar recording from LO, RF-E: unipolar recording from RF, RO-E: unipolar recording from RO.
83.5 U/μl of penicillin G was absorbed into a 2 mm square filter paper and directly applied to the cerebral cortex surface from an opening formed around the left sensory-motor cortex. coenzyme Q10 (Co Q10) was administered intraperitoneally to each rat, and the EEG patterns were recorded in the same way as above. As a control, a solvent alone was administered intraperitoneally to control rats at the same rate.
Further experiments were conducted by the same procedure as used in Experimental Example 1, except that the time of the administration of coenzyme Q10 was changed. The results are shown in Table 1 below as Experimental Examples 2 to 4. In Table 1, PCG represents penicillin G.

[3] = Experimental Example 1, intraperitoneal
[4] = Table 1, Experimental Example 2, 100 mg/kg, 107 minutes after applying PCG
[5] = Table 1, Experimental Example 3, 100 mg/kg, 65 minutes after applying PCG

COC1=C(OC)C(=O)C(C/C=C(\C)CC/C=C(\C)CC/C=C(\C)CC/C=C(\C)CC/C=C(\C)CC/C=C(\C)CC/C=C(\C)CC/C=C(\C)CC/C=C(\C)CCC=C(C)C)=C(C)C1=O [coenzyme Q10]
LD50 (Acute toxicity, rat; im, intramuscular): 500 mg/kg
LD50 (Acute toxicity, rat; iv, Intravous): 250 mg/kg
LD50 (Acute toxicity, rat; oral): 4000 mg/kg
LD50 (Acute toxicity, rat; sc, subcutaneous): 500 mg/kg
solubility (Solubility; in chloroform, benzene, carbon tetrachloride, acetone and ether): soluble
solubility (Solubility; in ethanol, water and methanol): insoluble
LD50 (Acute toxicity, mouse; im, intramuscular): 500 mg/kg
LD50 (Acute toxicity, mouse; iv, Intravous): 250 mg/kg
LD50 (Acute toxicity, mouse; oral): 4000 mg/kg
LD50 (Acute toxicity, mouse; sc, subcutaneous): 500 mg/kg
time during which no spike discharge occurred [1]: more than 80 minutes
general condition, blood test, urine test and morphological observation vs control group (Wistar rats): No differences at all from the control group were observed
duration of disappearance of the spike discharge [2, 3]: more than 200 minutes
time to disappearance of the spike discharge after administration of coenzyme Q10 [2, 3]: about 10 minutes
duration of disappearance of the spike discharge [2, 4]: more than 120 minutes
time to disappearance of the spike discharge after administration of Co Q10 [2, 4]: 20 min
duration of disappearance of the spike discharge [2, 5]: more than 60 minutes
time to disappearance of the spike discharge after administration of Co Q10 [2, 5]: 19 min

Source: patent publication US4491594A, “Method for treatment of seizures” (Eisai Co., Ltd., priority 1983, dated 1985)
